Measurements: patent US20250129130A1, “USE OF VARIOVORAX MICROBES AS AN ALTERNATIVE TREATMENT FOR COCCIDIOSIS” (ZIVO BIOSCIENCE, INC., priority 2020, published 2025)

Experiments:
[1] = system: E. acervuline, E. maxima, E. tenella oocysts; test: Study No. 3: floor-pen broiler performance and digestive health under cocci-challenge + built-up litter; settings: Coban 90 g/ton, Inventive Compound 125 g/ton
TLR4 [2] = target: T1, TLR4 (Homo sapiens, UniProt O00206+Q9Y6Y9); settings: Phase 2 multiple sclerosis trial, versus placebo; cited from earlier work
TLR4 [3] = target: T1, TLR4; settings: severe sepsis; cited from earlier work
[4] = system: mixed E. acervulina, E. maxima, and E. tenella coccidial inoculum; test: Study No. 1: anticoccidial efficacy in feed, battery-cage broilers, mixed Eimeria challenge; assay type: in vivo, male broiler chickens; settings: Salinomycin 60 g/t
Text: A non-limiting example of a method for the improvement of growth efficiency in broiler chickens exposed to a coccidiosis disease challenge is set forth.
The study animals were chickens, specifically male broiler chickens. Day of hatch male broiler chicks were obtained. At the hatchery, the birds were sexed. Sets of ten chicks were randomly selected, group weighed and placed into cages. The number and disposition of all birds not used for allocation were documented. No birds were replaced during the course of the study. There were 80 birds per treatment group.
The poultry cages were blocked by location in the battery with block size equal to treatments. The study began when the birds, specifically broiler chickens, were placed on the day of hatch (DOT 0) at which time they were allocated to the experimental cages. Only healthy birds were selected. At placement the birds were fed the treatment feeds. Thermostatically controlled gas furnace/air conditioner maintained uniform temperature in the cages.
An un-medicated commercial type chicken starter compounded with feedstuffs commonly used in the United States was formulated. The diet was an all-vegetable feed having no antibiotics, organic acid, NSP enzyme, or direct fed microbial. This ration was fed ad libitum from the date of chick arrival until Day 28 of the study. The diet formulation was included in the source data. Experimental treatment feeds were prepared from this basal starter feed. Quantities of all basal feed and test articles used to prepare treatment batches were documented.
All birds were weighed by cage on DOT 0, 14, 20 and 28. Feed was weighed in on DOT 0. The remaining feed was weighed on DOT 14, 20, and 28.
Coccidial oocysts inoculation procedures were carried out. On Day 14 of the study, all birds except T1 orally received a mixed E. acervulina, E. maxima, and E. tenella coccidial inoculum diluted to a 1.0 ml volume (p.o.). Inoculum level attempted to produce a moderate challenge.
On DOT 20, a select number of birds from each cage were selected, sacrificed, weighed, and examined for the degree of presence of coccidia lesions. The Johnson and Reid (1970) method of coccidiosis lesion scoring was used to score the infected region(s) of the intestine. The scoring was based on a 0 to 4 score, with 0 being normal and 4 being the most severe. Also on Day 20 mixed feces were collected from each cage. Each sample was examined for the number of oocysts per gram fecal material by fecal floatation.
STUDY NO. 1—ANALYSIS METHODOLOGY Means for cage weight gain, feed consumption, feed conversion, lesion scores, oocyst counts (OPGs), and mortality were calculated.

[5] = DAY 0-20, infected Day 14, Inventive Compound 0.551%
[6] = DAY 0-28, infected Day 14, Inventive Compound 0.551%
[7] = DAY 14 (before challenge), Inventive Compound 0.551% in feed
[8] = DAY 14-20, infected Day 14, Inventive Compound 0.551%
[9] = DAY 14-28, infected Day 14, Inventive Compound 0.551%
[10] = DOT 20, Johnson and Reid 0 to 4 score, Inventive Compound 0.551%
[11] = Day 20 mixed feces, fecal floatation, Inventive Compound 0.551%

T1 sequence (O00206 24-839): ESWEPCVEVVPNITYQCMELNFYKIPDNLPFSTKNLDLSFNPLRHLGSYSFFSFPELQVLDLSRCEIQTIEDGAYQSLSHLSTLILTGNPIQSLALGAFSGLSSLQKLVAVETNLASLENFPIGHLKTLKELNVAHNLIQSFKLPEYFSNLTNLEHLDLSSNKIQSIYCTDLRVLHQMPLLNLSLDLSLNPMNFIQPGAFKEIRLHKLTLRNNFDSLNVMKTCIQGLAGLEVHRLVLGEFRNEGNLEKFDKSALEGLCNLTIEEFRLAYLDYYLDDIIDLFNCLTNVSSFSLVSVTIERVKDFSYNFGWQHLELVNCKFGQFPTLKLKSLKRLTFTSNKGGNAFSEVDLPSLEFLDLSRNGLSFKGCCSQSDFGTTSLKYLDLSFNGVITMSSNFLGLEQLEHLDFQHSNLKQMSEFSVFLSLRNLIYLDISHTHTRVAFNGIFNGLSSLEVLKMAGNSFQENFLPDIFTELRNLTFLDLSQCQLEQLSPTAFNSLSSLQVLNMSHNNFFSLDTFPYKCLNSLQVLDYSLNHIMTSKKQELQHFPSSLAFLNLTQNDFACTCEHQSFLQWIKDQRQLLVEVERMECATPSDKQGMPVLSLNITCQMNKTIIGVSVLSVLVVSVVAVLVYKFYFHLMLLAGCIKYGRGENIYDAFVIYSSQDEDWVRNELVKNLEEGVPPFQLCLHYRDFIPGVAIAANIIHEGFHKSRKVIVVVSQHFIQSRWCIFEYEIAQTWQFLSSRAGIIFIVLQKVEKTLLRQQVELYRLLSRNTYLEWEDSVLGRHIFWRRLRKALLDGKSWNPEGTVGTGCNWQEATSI
T1 sequence (Q9Y6Y9 17-160 limits assumed): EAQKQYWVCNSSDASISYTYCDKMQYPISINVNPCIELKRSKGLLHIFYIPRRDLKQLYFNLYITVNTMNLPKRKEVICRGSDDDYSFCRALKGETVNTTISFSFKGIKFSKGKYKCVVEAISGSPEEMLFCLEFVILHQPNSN

In the case of `CC[C@@]1([C@@H]2O[C@@H]([C@H]3O[C@@](O)(CO)[C@H](C)C[C@@H]3C)C[C@@H]2C)CC[C@H]([C@]2(C)CC[C@]3(C[C@H](O)[C@@H](C)[C@@H]([C@@H](C)[C@@H](OC)[C@H](C)C(=O)O)O3)O2)O1` [Coban, Monensin, USP], the “% Mortality” value ([1]; DAY 0-14, challenge Day 7) is reported as 0.833a %, the “Avg Body Weight (g)” value ([1]; DAY 0-14, challenge Day 7) is reported as 496.13a g and the FCR ([1]; DAY 0-14, challenge Day 7) is reported as 1.112ab. The “Feed Intake (g/bird/day)” value ([1]; DAY 0-14, challenge Day 7) was 34.680b g/bird/day, the “% Mortality” value ([1]; DAY 0-21) was 1.563a % and the “Avg Body Weight (g)” value ([1]; DAY 0-21) was 951.80a g. The FCR ([1]; DAY 0-21) was 1.151a, the “Feed Intake (g/bird/day)” value ([1]; DAY 0-21) was 54.811a g/bird/day and the “% Mortality” value ([1]; DAY 0-28) was 1.563a %. The “Avg Body Weight (g)” value ([1]; DAY 0-28) was 1535.00a g, the FCR ([1]; DAY 0-28) was 1.387a and the “Feed Intake (g/bird/day)” value ([1]; DAY 0-28) was 78.960c g/bird/day. The “% Mortality” value ([1]; DAY 15-21) was 0.729a %, the “Avg Body Weight (g)” value ([1]; DAY 15-21) was 445.167a g and the FCR ([1]; DAY 15-21) was 1.244ab. For the same molecule, the “Feed Intake (g/bird/day)” value ([1]; DAY 15-21) was 77.988a g/bird/day, the “% Mortality” value ([1]; DAY 22-28) was 0.000a % and the “Avg Body Weight (g)” value ([1]; DAY 22-28) was 583.217a g. The FCR ([1]; DAY 22-28) was 1.825a, the “Feed Intake (g/bird/day)” value ([1]; DAY 22-28) was 151.410c g/bird/day and the “DAY 14 Avg Lesion Score Ceca” value ([1]; Day 14) was 0.292a. For the same molecule, the “DAY 14 Avg Lesion Score Duodenum” value ([1]; Day 14) was 0.375b, the “DAY 28 Avg Lesion Score Ceca” value ([1]; Day 28) was 0.229a and the “DAY 28 Avg Lesion Score Duodenum” value ([1]; Day 28) was 0.208a.
In the case of `CC(C)C(=O)c1c(C(C)C)nn2ccccc12` [Ibudilast], the “rates of gastrointestinal side effects, headache, and depression” value (TLR4 [2]) is listed as “higher rates”.
In the case of `CCOC(=O)C1=CCCC[C@H]1S(=O)(=O)Nc1ccc(F)cc1Cl` [Resatorvid], the “mortality in Phase 3 clinical trials” value (TLR4 [3]) is given as “failed to reduce mortality”.
For `CC[C@@H](C(=O)[C@@H](C)[C@@H](O)[C@H](C)[C@@H]1O[C@@H]([C@@H](CC)C(=O)O)CC[C@@H]1C)[C@H]1O[C@]2(C=C[C@@H](O)[C@]3(CC[C@@](C)([C@H]4CC[C@](O)(CC)[C@H](C)O4)O3)O2)[C@H](C)C[C@@H]1C` [Salinomycin], the FCR [4, 5] was 1.597bc, the “Feed Intake” value [4, 5] was 5.433a and the “Wt. Gain” value [4, 5] was 0.360b. The FCR [4, 6] was 1.625bc, the “Feed Intake” value [4, 6] was 5.918a and the “Wt. Gain” value [4, 6] was 0.376b. For the same molecule, the FCR [4, 7] was 1.156a, the “Feed Intake” value [4, 7] was 2.384a and the “Wt. Gain” value [4, 7] was 0.218a. The FCR [4, 8] was 1.744b, the “Feed Intake” value [4, 8] was 3.049a and the “Wt. Gain” value [4, 8] was 0.185b. The FCR [4, 9] was 1.766c, the “Feed Intake” value [4, 9] was 3.534a and the “Wt. Gain” value [4, 9] was 0.202b. The “Lesion Scores Avg.” value [4, 10] was 1.3c, the “Lesion Scores Eimeria acervulina” value [4, 10] was 2.1c and the “Lesion Scores Eimeria maxima” value [4, 10] was 0.9c. For the same molecule, the “Lesion Scores Eimeria tenella” value [4, 10] was 0.7c, the “Oocysts per Gram Fecal Material Avg.” value [4, 11] was 9722b and the “Oocysts per Gram Fecal Material Eimeria acervulina” value [4, 11] was 4511a. The “Oocysts per Gram Fecal Material Eimeria maxima” value [4, 11] was 484b and the “Oocysts per Gram Fecal Material Eimeria tenella” value [4, 11] was 4727c.
